Values belong to the molecule of their own block, whether it stands above or below them.
How the values were obtained:
[1] = test system: wild type laboratory HIV strain (WT IIIB-2-001); experiment: Cellular anti-viral assay in MT4-LTR-EGFP cells, wild type strain; format: cell-based; details: Human immunodeficiency virus 1, IIIB, 72 h; MT4-LTR-EGFP cells, three days, GFP signal; read-out: pEC50 WT-IIIB-2-001 (converted)
Method: The compounds were tested in a cellular assay using the MT4-LTR-EGFP cells for anti-viral activity.
The cellular assay was performed according to the following procedure. HIV- or mock-infected MT4-LTR-EGFP cells were incubated for three days in the presence of various concentrations of the compounds according to the invention. Upon infection, the viral tat protein activates the GFP reporter. At the end of the incubation period, the GFP signal was measured. […] The inhibitory activity of the compound was monitored on the virus-infected cells and was expressed as EC50. These values represent the amount of the compound required to protect 50% of the cells from virus infection.

[2] = test system: clinically isolated HIV strain A; experiment: Cellular anti-viral assay in MT4-LTR-EGFP cells, mutant strain A; format: cell-based; details: Human immunodeficiency virus 1, 72 h, read-out: pEC50 virus strain A (converted)
Method: (§1) Because of the increasing emergence of drug resistant HIV strains, the present compounds were tested for their potency against clinically isolated HIV strains harboring several mutations. These mutations are associated with resistance to protease inhibitors and result in viruses that show various degrees of phenotypic cross-resistance to the currently commercially available drugs such as for instance saquinavir, ritonavir, nelfinavir, indinavir and amprenavir. The viral strains coded as A, B, C and D contain mutations as indicated below in Table 2.
(§2) The cellular assay was performed according to the following procedure. HIV- or mock-infected MT4-LTR-EGFP cells were incubated for three days in the presence of various concentrations of the compounds according to the invention. Upon infection, the viral tat protein activates the GFP reporter. At the end of the incubation period, the GFP signal was measured. In the virus control samples (in the absence of any inhibitor) the maximal fluorescent signal was obtained. The inhibitory activity of the compound was monitored on the virus-infected cells and was expressed as EC50. These values represent the amount of the compound required to protect 50% of the cells from virus infection. (Table 3).

[3] = test system: clinically isolated HIV strain B; experiment: Cellular anti-viral assay in MT4-LTR-EGFP cells, mutant strain B; format: cell-based; details: Human immunodeficiency virus 1, 72 h, read-out: pEC50 virus strain B (converted)
Method: as §1, §2

[4] = test system: clinically isolated HIV strain C; experiment: Cellular anti-viral assay in MT4-LTR-EGFP cells, mutant strain C; format: cell-based; details: Human immunodeficiency virus 1, 72 h, read-out: pEC50 virus strain C (converted)
Method: as §1, §2

[5] = test system: clinically isolated HIV strain D; experiment: Cellular anti-viral assay in MT4-LTR-EGFP cells, mutant strain D; format: cell-based; details: Human immunodeficiency virus 1, 72 h, read-out: pEC50 virus strain D (converted)
Method: as §1, §2

[6] = Plasma exposure (AUC) in single-dose, dose-escalating dog study; format: in vivo, Beagle dogs; details: beagle
Method: Studies were carried out to test for the occurrence of erythema and edema in dogs. The compound having structural formula (II) was orally administered to Beagle dogs in an appropriate formulation as a single-dose, dose-escalating study design. In order to achieve high systemic exposures, a so-called booster compound was co-administered (ritonavir, RTV). Blood samples were taken at regular time points following the dosing. Clinical signs were recorded at least once daily for the treatment period and follow up (for at least 24 hours). Symptoms were graded on a […], with 0 being absence of symptoms, 1 mild, 2, moderate, 3 severe, 4 very severe. Special attention was paid to the occurrence of erythema and edema. The concentration of the compound having formula (II) in dog plasma was determined using a LC-MS/MS method. Raw data were used to calculate standard pharmacokinetic parameters (e.g. AUC) as a measure of systemic exposure. The systemic exposure for the compound having formula (II) was compared to the exposure of a reference compound having structural formula (III), in similar single-dose experiments in dogs, in the absence of a booster (ritonavir).

[7] = test system: Beagle dogs; experiment: Hypersensitivity testing: erythema and edema in dogs, single dose; format: in vivo; details: for induction of erythema and/or edema: single dose experiments in dogs, summary in words
Method: Studies were carried out to test for the occurrence of erythema and edema in dogs. The compound having structural formula (II) was orally administered to Beagle dogs in an appropriate formulation as a single-dose, dose-escalating study design. In order to achieve high systemic exposures, a so-called booster compound was co-administered (ritonavir, RTV). Blood samples were taken at regular time points following the dosing. Clinical signs were recorded at least once daily for the treatment period and follow up (for at least 24 hours). Symptoms were graded on a […], with 0 being absence of symptoms, 1 mild, 2, moderate, 3 severe, 4 very severe. Special attention was paid to the occurrence of erythema and edema.

[8] = test system: beagle dog; experiment: Single dose escalation/five day repeat dose toxicology study in beagle dog; format: in vivo
Method: In a single dose escalation/S day repeat dose dog toxicology study, beagle dogs were treated with compound II according to the current invention at dose levels from 40 up to 144 mg/kg day.

[9] = test system: Beagle dogs; experiment: 28 day / 1-month toxicology study in beagle dogs; format: in vivo; details: for erythema and edema after oral administration: summary of toxicology studies up to 1 month in duration, beagle dog
Method: These findings occurred shortly after dosing, were transient in nature, maximal between approximately 1 to 2 hours after dosing, disappearing thereafter. There was a large interindividual variation in this response, with no dose-response relationship. Mechanistic studies to clarify the cause for erythema were not indicative of a histamine-based mechanism of action.

[10] = Pharmacokinetics of compound II and boosting effect of ritonavir in fed male beagle dogs; format: in vivo; details: for AUC(0-inf) / Cmax: male, beagle, dog, plasma, po
Method: Pharmacokinetics of Compound II and Boosting Effect of Ritonavir in Fed Male Beagle Dogs after Single Oral Administration of Compound II at 10 or 40 mg/kg.
The present study was performed to study the plasma pharmacokinetics of compound II in male beagle dogs after single oral administration doses of 10 and 40 mg/kg, and to evaluate the potential boosting effect of ritonavir, dosed at 10 mg/kg twice daily, on the bioavailability of compound II.
Beagle dogs (7-11 kg body weight) were dosed after feeding. Both compound II and ritonavir were given by gavage of an oral solution. All animals first received compound II alone, and after a washout of one week, the combination of ritonavir and compound II in the morning. Ritonavir dosing was repeated in the evening and on the next day's morning. Plasma was sampled to measure compound II and ritonavir concentrations until 32 hours after dosing of compound II.

[11] = test system: beagle dog; experiment: Oral 3 month dog toxicology study; format: in vivo
Method: In some cases, these symptoms started as maculate erythema and/or nodular swelling and progressed to diffuse/general erythema and swelling. Signs were predominantly visible in areas with thin/sparse fur including the ears, periorbital region and abdomen. The findings were transient, with maximal severity about one hour after dosing and disappearing or decreasing to lower severity by 4 hours post-administration.

[12] = 10 mg/kg, 10 mg/kg compound II single oral, with Ritonavir 10 mg/kg twice daily
[13] = 10 mg/kg, 10 mg/kg compound II single oral, without Ritonavir
[14] = 40 mg/kg compound II single oral, with Ritonavir 10 mg/kg twice daily
[15] = 40 mg/kg, 40 mg/kg compound II single oral, without Ritonavir

SMILES: CC(C)CN(C[C@@H](O)[C@H](Cc1ccccc1)NC(=O)O[C@H]1CO[C@H]2OCC[C@H]21)S(=O)(=O)c1ccc2nc(NC3CCN(C4CCCC4)CC3)sc2c1 [Compound 7, (1-benzyl-3-{[2-(1-cyclopentyl-piperidin-4-ylamino)-benzothiazole-6-sulfonyl]-isobutyl-amino}-2-hydroxy-propyl)-carbamic acid hexahydro-furo[2,3-b]furan-3-yl ester]
EC50 [1]: 13.2 nM
EC50 [2]: 11.7 nM
EC50 [3]: 20 nM
EC50 [4]: 2880 nM
EC50 [5]: 13.5 nM
AUC ([6]; oral single dose 20 mg/kg, with ritonavir (RTV) coadministration, mean of 4 animals): 7750 ng·h/mL
AUC ([6]; oral single dose 40 mg/kg, with ritonavir (RTV) coadministration, mean of 4 animals): 23000 ng·h/mL
AUC ([6]; oral single dose 80 mg/kg, with ritonavir (RTV) coadministration, mean of 4 animals): 23000 ng·h/mL
Erythema/edema ([7]; oral single dose 20 mg/kg, with ritonavir (RTV) coadministration): No
Erythema/edema ([7]; oral single dose 40 mg/kg, with ritonavir (RTV) coadministration): No
Erythema/edema ([7]; oral single dose 80 mg/kg, with ritonavir (RTV) coadministration): No
induction of erythema and/or edema [7]: did not induce erythema and/or edema
edema or erythema ([8]; dose levels from 40 up to 144 mg/kg day): No evidence of edema or erythema
Erythema/edema ([9]; 1-month study, dose levels 5, 20 and 40 mg/kg/day): neither erythema nor edema was noted
erythema and edema after oral administration [9]: did not induce erythema and/or edema
Cmax Ratio (with/without Ritonavir) ([10]; 10 mg/kg compound II): 7.1
Relative bioavailability Frel (AUC0-inf with vs without Ritonavir) ([10]; 10 mg/kg compound II): 1378%
Cmax Ratio (with/without Ritonavir) ([10]; 40 mg/kg compound II): 3.6
Relative bioavailability Frel (AUC0-inf with vs without Ritonavir) ([10]; 40 mg/kg compound II): 1083%
increase of AUC in the presence of ritonavir ([10]; 10 and 40 mg/kg compound II): over 10 fold
increase of Cmax in the presence of ritonavir ([10]; 10 and 40 mg/kg compound II): 4 to 7 fold
AUC(0-inf) [10, 12]: 4370 ng·h/mL
Cmax [10, 12]: 879 ng/mL
AUC(0-inf) [10, 13]: 330 ng·h/mL
Cmax [10, 13]: 123 ng/mL
AUC(0-inf) [10, 14]: 23600 ng·h/mL
Cmax [10, 14]: 4220 ng/mL
AUC(0-inf) [10, 15]: 2290 ng·h/mL
Cmax [10, 15]: 1190 ng/mL
total plasma exposure (AUC) and peak plasma concentrations (Cmax) after co-administration with ritonavir ([10]; twice-daily dosing of 10 mg/kg ritonavir, in words): markedly increased

AUC ([6]; oral, single dose 10 mg/kg, absence of booster, range): 47 to 238 ng·h/mL
AUC ([6]; oral, single dose 40 mg/kg, absence of booster, range): 3320 to 5090 ng·h/mL
AUC ([6]; oral, single dose 80 mg/kg, absence of booster, range): 7370 to 16000 ng·h/mL
AUC ([6]; oral, single dose 120 mg/kg, absence of booster, range): 10200 to 27500 ng·h/mL
Erythema/edema ([7]; single dose 10 mg/kg, absence of booster): No
Erythema/edema ([7]; single dose 40 mg/kg, absence of booster): No
Erythema/edema ([7]; single dose 80 mg/kg, absence of booster): Yes
Erythema/edema ([7]; single dose 120 mg/kg, absence of booster): Yes
induction of erythema and/or edema [7]: did induce these clinical signs
SMILES: CC(C)CN(C[C@@H](O)[C@H](Cc1ccccc1)NC(=O)O[C@H]1CO[C@H]2OCC[C@H]21)S(=O)(=O)c1ccc2nc(NCCN3CCCC3)sc2c1 [Reference compound having formula (III)]
erythema ([8]; high dose level 80 mg/kg/day, after five consecutive days of treatment): exhibited general erythema
redness of the skin (erythema) ([9]; 28 day study, all dose levels (40, 80, 120 mg/kg/day), most animals): slight to severe redness of the skin
onset of erythema symptoms ([9]; 28 day study, dose levels 80 and 120 mg/kg/day): present from the start of the study
onset of erythema symptoms ([9]; 28 day study, low dose level 40 mg/kg/day): third week
swelling (edema) accompanying erythema ([9]; 28 day study, head, flews, eyes and/or ears, most cases): accompanied by swelling (edema)
time after dosing of maximal erythema/edema findings ([9]; 28 day study, transient findings): 1 to 2 h
erythema and edema after oral administration [9]: produced erythema and edema
erythema or edema ([11]; 10 mg/kg/day): No erythema or edema was observed
erythema ([11]; 40 mg/kg/day, after 5 weeks of treatment): one of four males dosed at 40 mg/kg/day exhibited general erythema
erythema of the skin and swelling ([11]; 120 mg/kg/day, majority of the animals, entire treatment period): slight to severe erythema of the skin, accompanied by swelling
time after dosing of maximal severity of erythema/swelling ([11]; 3 month study, transient findings): about one

— patent publication US8202887B2, “2-(substituted-amino)-benzothiazole sulfonamide HIV protease inhibitors” (Janssen R&D Ireland, priority 2006, dated 2012)
